Results: patent publication US11084814B2, “Pyrido[3, 4-d]pyrimidine derivative and pharmaceutically acceptable salt thereof” (Teijin Pharma Limited, priority 2016, dated 2021)
pIC50: −log10 of the molar value.

What was measured:
CDK4/cyclin D3 = target: T1, CDK4/cyclin D3 (Homo sapiens, UniProt P11802); experiment: Human CDK4/cyclin D3 inhibitory activity (QS S Assist CDK4/Cyclin D3_FP Kit, IMAP fluorescent polarization); type: biochemical; details: read-out: CDK4 Activity symbol
T1 construct: purchased Carna Biosciences, Inc. QS S Assist CDK4/Cyclin D3_FP Kit
Outline: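 Kinase reactions used kit CDK4/cyclin D3 at 12.5–25 ng/well with the kit ATP/substrate/metal mix in 20 mM HEPES (pH 7.4), 0.01% Tween20 and 2 mM DTT, run 45 min at room temperature. Phosphorylation was detected by IMAP fluorescence polarization (ex 485/em 535 nm) after 30 min binding in the dark. IC50 was fitted from percent inhibition against DMSO controls with and without enzyme.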

CDK2/cyclin A2 = target: T2, CDK2/cyclin A2 (Homo sapiens, UniProt P24941); experiment: Human CDK2/cyclin A2 inhibitory activity (QS S Assist CDK2/Cyclin A2_FP Kit, IMAP fluorescent polarization); type: biochemical; details: read-out: CDK2 Activity symbol
T2 construct: purchased Carna Biosciences, Inc. QS S Assist CDK2/Cyclin A2_FP Kit
Outline: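 Kit CDK2/cyclin A2 (2.5 ng/well) was reacted with kit ATP/substrate/metal in 20 mM HEPES pH 7.4, 0.01% Tween 20 and 2 mM DTT for 60 min at room temperature. IMAP binding reagent was added for 30 min, then fluorescence polarization was read at 485/535 nm. IC50 came from dose-response fitting of percent inhibition.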

T1 sequence (P11802 whole entry): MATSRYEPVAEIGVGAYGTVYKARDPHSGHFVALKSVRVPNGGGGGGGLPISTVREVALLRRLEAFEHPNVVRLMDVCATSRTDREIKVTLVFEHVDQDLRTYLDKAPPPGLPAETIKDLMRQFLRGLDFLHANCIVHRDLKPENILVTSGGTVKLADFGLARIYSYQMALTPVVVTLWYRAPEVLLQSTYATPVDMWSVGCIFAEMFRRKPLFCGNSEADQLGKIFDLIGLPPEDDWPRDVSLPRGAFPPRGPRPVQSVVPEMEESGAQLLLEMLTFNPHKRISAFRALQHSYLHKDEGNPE
T1 sequence (P30281 whole entry partner): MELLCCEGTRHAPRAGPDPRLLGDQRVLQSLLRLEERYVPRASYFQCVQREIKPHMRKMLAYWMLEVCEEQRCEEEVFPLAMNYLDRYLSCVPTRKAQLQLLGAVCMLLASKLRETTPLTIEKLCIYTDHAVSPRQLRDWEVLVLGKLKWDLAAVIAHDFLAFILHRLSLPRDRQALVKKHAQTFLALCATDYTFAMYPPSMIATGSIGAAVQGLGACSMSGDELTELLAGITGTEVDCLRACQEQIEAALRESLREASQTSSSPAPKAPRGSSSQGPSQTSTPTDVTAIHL

| pIC50 (CDK4/cyclin D3) | pIC50 (CDK2/cyclin A2) | SMILES |
| --- | --- | --- |
| > 8.00 | ≤ 7.00 | C[C@@H](O)c1cc2cnc(Nc3ccc4c(n3)CCN(C(=O)C3CCN(CCO)CC3)C4)nc2c(N2CCCCC2)n1 [Compound 148] |
| > 8.00 | ≤ 7.00 | C[C@@H](O)c1cc2cnc(Nc3ccc4c(n3)CCN(C(=O)C3CCN(C)CC3)C4)nc2c(N2CCCCC2)n1 [Compound 149] |
| > 8.00 | ≤ 7.00 | C[C@@H](O)c1cc2cnc(Nc3ccc(CN4CCN(C)CC4)cn3)nc2c(N2CCC(F)(F)CC2)n1 [Compound 150] |
| > 8.00 | ≤ 7.00 | C[C@@H](O)c1cc2cnc(Nc3ccc(N4CCN(CCO)CCC4=O)cn3)nc2c(N2CCCCC2)n1 [Compound 151] |
| > 8.00 | ≤ 7.00 | CC(O)c1cc2cnc(Nc3ccc(CN4CCN(C)CC4C)cn3)nc2c(N2CCCCC2)n1 (centres unmarked) [Compound 152] |
| > 8.00 | ≤ 7.00 | C[C@@H](O)c1cc2cnc(Nc3ccc(CN4CCNCC4)cn3)nc2c(N2CCCCC2)n1 [Compound 155] |
| > 8.00 | ≤ 7.00 | C[C@@H](O)c1cc2cnc(Nc3ccc(CN4CCN(CCO)CC4)cn3)nc2c(C2=CCCCC2)n1 [Compound 156] |
| > 8.00 | ≤ 7.00 | CC(O)c1cc2cnc(Nc3ccc(CN4CCN(C)CC4)cn3)nc2c(N2CC3CC3C2)n1 (centres unmarked) [Compound 157] |
| > 8.00 | ≤ 7.00 | C[C@@H](O)c1cc2cnc(Nc3ccc(CN4CCN(C)CC4)cn3)nc2c(N2CCCCCC2)n1 [Compound 158] |
| 7.00 to 8.00 | ≤ 7.00 | CC[C@@H](O)c1cc2cnc(Nc3ccc(CN4CCN(CCO)CC4)cn3)nc2c(N2CCCCC2)n1 [Compound 159] |
| > 8.00 | ≤ 7.00 | CC[C@H](O)c1cc2cnc(Nc3ccc(CN4CCN(CCO)CC4)cn3)nc2c(N2CCCCC2)n1 [Compound 160] |
| > 8.00 | ≤ 7.00 | C[C@@H](O)c1cc2cnc(Nc3ccc4c(n3)CCN(C3COC3)C4)nc2c(N2CCCCC2)n1 [Compound 161] |
| > 8.00 | ≤ 7.00 | C[C@@H](O)c1cc2cnc(Nc3ccc4c(n3)CCN(CCN3CCOCC3)C4)nc2c(N2CCCCC2)n1 [Compound 162] |
| > 8.00 | ≤ 7.00 | C[C@@H](O)c1cc2cnc(Nc3ccc4c(n3)CCN(S(=O)(=O)C3CCNCC3)C4)nc2c(N2CCCCC2)n1 [Compound 163, (R)-1-(8-(piperidin-1-yl)-2-((6-(piperidin-4-ylsulfonyl)-5,6,7,8-tetrahydro-1,6-naphthyridin-2-yl)amino)pyrido[3,4-d]pyrimidin-6-yl)ethanol] |
| > 8.00 | ≤ 7.00 | C[C@@H](O)c1cc2cnc(Nc3ccc(OC4CCNCC4)cn3)nc2c(N2CCCCC2)n1 [Compound 164] |
| > 8.00 | ≤ 7.00 | C[C@@H](O)c1cc2cnc(Nc3ccc(OC4CCN(CCO)CC4)cn3)nc2c(N2CCCCC2)n1 [Compound 165] |
| 7.00 to 8.00 | ≤ 7.00 | C[C@H](CO)c1cc2cnc(Nc3ccc4c(n3)CCNC4)nc2c(N2CCCCC2)n1 [Compound 166] |
| > 8.00 | ≤ 7.00 | C[C@@H](CO)c1cc2cnc(Nc3ccc(CN4CCN(CCO)CC4)cn3)nc2c(N2CCCCC2)n1 [Compound 167] |
| 7.00 to 8.00 | ≤ 7.00 | C[C@@H](O)Cc1cc2cnc(Nc3ccc(CN4CCN(CCO)CC4)cn3)nc2c(N2CCCCC2)n1 [Compound 168] |
| 7.00 to 8.00 | ≤ 7.00 | C[C@@H](O)Cc1cc2cnc(Nc3ccc(N4CCNCC4=O)cn3)nc2c(N2CCCCC2)n1 [Compound 169] |
| 7.00 to 8.00 | ≤ 7.00 | C[C@@H](O)Cc1cc2cnc(Nc3ccc4c(n3)CCN(CCO)C4)nc2c(N2CCCCC2)n1 [Compound 170] |
| 7.00 to 8.00 | ≤ 7.00 | C[C@@H](CO)c1cc2cnc(Nc3ccc4c(n3)CCN(CCO)C4)nc2c(N2CCCCC2)n1 [Compound 171] |
| 7.00 to 8.00 | ≤ 7.00 | C[C@@H](O)c1cc2cnc(Nc3ccc(CN4CCN(C)CC4)cn3)nc2c(N2CCC2)n1 [Compound 172] |
| > 8.00 | 7.00 to 8.00 | C[C@@H](O)c1cc2cnc(Nc3ccc(CN4CCN(C)CC4)cn3)nc2c(N2CCCC2(C)C)n1 [Compound 173] |
| > 8.00 | ≤ 7.00 | C[C@@H](O)c1cc2cnc(Nc3ccc4c(n3)CCN(C3CNC3)C4)nc2c(N2CCCCC2)n1 [Compound 175] |

| pIC50 (CDK4/cyclin D3) | pIC50 (CDK2/cyclin A2) | SMILES |
| --- | --- | --- |
| > 8.00 | ≤ 7.00 | C[C@@H](O)c1cc2cnc(Nc3ccc4c(n3)CCN(C3CN(CCO)C3)C4)nc2c(N2CCCCC2)n1 [Compound 176] |
| > 8.00 | ≤ 7.00 | C[C@@H](O)c1cc2cnc(Nc3ccc(CN4CCN(C)CC4)cn3)nc2c(N2CCCOCC2)n1 [Compound 177] |
| > 8.00 | ≤ 7.00 | C[C@@H](O)c1cc2cnc(Nc3ccc(CN4CCN(CCO)CC4)cn3)nc2c(N2CCCOCC2)n1 [Compound 178] |
| > 8.00 | ≤ 7.00 | C[C@@H](O)c1cc2cnc(Nc3ccc(CN4CCN(C)CC4)cn3)nc2c(N2CCC[C@H](F)C2)n1 [Compound 179] |
| > 8.00 | ≤ 7.00 | C[C@@H](O)c1cc2cnc(Nc3ccc(CN4CCN(CCO)CC4)cn3)nc2c(N2CCC[C@H](F)C2)n1 [Compound 180] |
| 7.00 to 8.00 | ≤ 7.00 | C[C@@H](O)c1cc2cnc(Nc3ccc(CN4CCN(CCO)CC4)cn3)nc2c(N2CC[C@H](F)C2)n1 [Compound 181] |
| > 8.00 | ≤ 7.00 | C[C@@H](O)c1cc2cnc(Nc3ccc(CN4CCN(CCO)CC4)cn3)nc2c(N2CC[C@@H](F)C2)n1 [Compound 182] |
| > 8.00 | ≤ 7.00 | C[C@H](O)CN1CCN(Cc2ccc(Nc3ncc4cc([C@@H](C)O)nc(N5CCCCC5)c4n3)nc2)CC1 [Compound 183, (S)-1-(4-((6-((6-((R)-1-hydroxyethyl)-8-(piperidin-1-yl)pyrido[3,4-d]pyrimidin-2-yl)amino)pyridin-3-yl)methyl)piperazin-1-yl)propan-2-ol] |
| > 8.00 | ≤ 7.00 | C[C@@H](O)c1cc2cnc(Nc3ccc(CN4CCN(C)C[C@@H]4C)cn3)nc2c(N2CCCCC2)n1 [Compound 186] |
| > 8.00 | ≤ 7.00 | C[C@@H](O)c1cc2cnc(Nc3ccc(CN4CCN(C)[C@@H](C)C4)cn3)nc2c(N2CCCCC2)n1 [Compound 188] |
| 7.00 to 8.00 | ≤ 7.00 | C[C@@H](O)c1cc2cnc(Nc3ccc(CN4CCN(CCO)CC4)cn3)nc2c(-c2ccccc2)n1 [Compound 190] |
| 7.00 to 8.00 | ≤ 7.00 | C[C@@H](O)c1cc2cnc(Nc3ccc(N4CCNCC4=O)cn3)nc2c(-c2ccccc2)n1 [Compound 191] |
| 7.00 to 8.00 | ≤ 7.00 | C[C@H](CO)c1cc2cnc(Nc3ccc(N4CCNCC4=O)cn3)nc2c(N2CCCCC2)n1 [Compound 192] |
| 7.00 to 8.00 | ≤ 7.00 | C[C@H](CO)c1cc2cnc(Nc3ccc4c(n3)CCN(CCO)C4)nc2c(N2CCCCC2)n1 [Compound 193] |
| > 8.00 | ≤ 7.00 | C[C@@H](CO)c1cc2cnc(Nc3ccc(N4CCNCC4=O)cn3)nc2c(N2CCCCC2)n1 [Compound 194] |
| 7.00 to 8.00 | ≤ 7.00 | C[C@H](CO)c1cc2cnc(Nc3ccc(CN4CCN(CCO)CC4)cn3)nc2c(N2CCCCC2)n1 [Compound 195] |
| 7.00 to 8.00 | ≤ 7.00 | C[C@@H](O)c1cc2cnc(Nc3ccc4c(n3)CCN(CC#N)C4)nc2c(N2CCCCC2)n1 [Compound 196] |
| 7.00 to 8.00 | ≤ 7.00 | C[C@@H](O)c1cc2cnc(Nc3ccc4c(n3)CCN(CC3COC3)C4)nc2c(N2CCCCC2)n1 [Compound 197] |
| > 8.00 | ≤ 7.00 | C[C@@H](O)c1cc2cnc(Nc3ccc(CN4CCN(C)CC4)cn3)nc2c(N2CCC[C@@H](F)C2)n1 [Compound 198] |
| > 8.00 | ≤ 7.00 | C[C@@H](O)c1cc2cnc(Nc3ccc(CN4CCN(CCO)CC4)cn3)nc2c(N2CCC[C@@H](F)C2)n1 [Compound 199] |
| > 8.00 | ≤ 7.00 | C[C@@H](O)c1cc2cnc(Nc3ccc4c(n3)CCN(C3CN(C)C3)C4)nc2c(N2CCCCC2)n1 [Compound 200] |
| > 8.00 | ≤ 7.00 | C[C@@H](O)c1cc2cnc(Nc3ccc4c(n3)CN(CCO)C4)nc2c(N2CCCCC2)n1 [Compound 201] |
| 7.00 to 8.00 | ≤ 7.00 | C[C@H](O)Cc1cc2cnc(Nc3ccc(CN4CCN(CCO)CC4)cn3)nc2c(N2CCCCC2)n1 [Compound 202] |
| > 8.00 | ≤ 7.00 | C[C@H](O)Cc1cc2cnc(Nc3ccc(N4CCNCC4=O)cn3)nc2c(N2CCCCC2)n1 [Compound 203] |
| 7.00 to 8.00 | ≤ 7.00 | C[C@H](O)Cc1cc2cnc(Nc3ccc4c(n3)CCN(CCO)C4)nc2c(N2CCCCC2)n1 [Compound 204] |

| SMILES | pIC50 (CDK4/cyclin D3) | pIC50 (CDK2/cyclin A2) |
| --- | --- | --- |
| CC(O)c1cc2cnc(Nc3ccc(CN4CCN(C)CC4)cn3)nc2c(N2C3CCCC2CC3)n1 (centres unmarked) [Compound 174] | > 8.00 | ≤ 7.00 |
| Cc1nc(Nc2ncc3cc([C@@H](C)O)nc(N4C5CCC4CC5)c3n2)ccc1N1CCN(C)CC1 [Compound 185] | > 8.00 | ≤ 7.00 |
| C[C@@H](O)c1cc2cnc(Nc3ccc(CN4CCN(C)C[C@@H]4C)cn3)nc2c(N2C3CCC2CC3)n1 [Compound 187] | > 8.00 | ≤ 7.00 |
| C[C@@H](O)c1cc2cnc(Nc3ccc(CN4CCN(C)[C@@H](C)C4)cn3)nc2c(N2C3CCC2CC3)n1 [Compound 189] | > 8.00 | ≤ 7.00 |
| c1cc(Nc2ncc3cc(C4CCOC4)nc(N4C5CCC4CC5)c3n2)ncc1CN1CCNCC1 (centres unmarked) [Compound 205] | > 8.00 | ≤ 7.00 |
